Laboratory results taken from PMC3558989 (Journal of Chemotherapy (Florence, Italy), 2013).

Tests used:
[1] = tested on: serum proteins of mouse, rat, dog and humans; experiment: Serum protein-binding assays, summary over methods and species; type: in vitro ADME, human
MRSA 1659 = experiment: Effect of serum on rate of kill; type: cell-based, S. aureus; settings: for reduction in the viable count: 10 hours
MSSA 29213 = experiment: Effect of serum binding on MIC
S. aureus Smith = settings: single oral dose of 1 mg/kg, mouse; cited from earlier work
[2] = tested on: 20 strains of staphylococci, including 10 MRSA; experiment: MIC with and without pulmonary surfactant, all strains; type: cell-based, S. aureus; settings: for effect of pulmonary surfactant on MICs: in words
in vitro = settings: mouse
[3] = tested on: MSSA 29213, MRSA A6250596 (fluoroquinolone-resistant) and MRSA A7080336; experiment: Further combination study of AFN-1252; type: cell-based, S. aureus; settings: three strains

## Cc1c(CN(C)C(=O)/C=C/c2cnc3c(c2)CCC(=O)N3)oc2ccccc12 [AFN-1252]
[1]; all serum types, all concentrations
  serum binding, equilibrium dialysis: exceeded 95%
[1]; mouse, rat, dog and humans, overall
  binding to serum proteins: ~95%
MRSA 1659; 75% human serum, 8× MIC
  effect on viable count: bacteriostatic activity
MRSA 1659; 75% human serum, 64× MIC
  reduction in the viable count: 2 log10
MRSA 1659; 75% mouse serum, 64× MIC
  effect on viable count: bacteriostasis
MRSA 1659; absence of serum, 4× MIC
  reduction in the viable count: 1–2 log10
MRSA 1659; absence of serum, 64× MIC
  reduction in the viable count: 4 log
MSSA 29213; 4% human serum albumin in CAMHB
  increase in MIC: 8 fold
MSSA 29213; 50% human serum vs serum-free CAMHB
  increase in MIC: 8 fold
MSSA 29213; 50% serum
  binding from MIC shift: approximately 90%
S. aureus Smith
  protection from lethal peritoneal infection: 100%
[2]
  effect of pulmonary surfactant on MICs: not affected
In vitro
  fraction unbound: 0.06 to 0.08

## CO/N=C(\C(=O)N[C@@H]1C(=O)N2C(C(=O)O)=C(COC(N)=O)CS[C@H]12)c1ccco1 [Cefuroxime]
[3]
  interaction with AFN-1252: did not detect any synergy or antagonism

## CCCCCCCCCC(=O)N[C@@H](Cc1c[nH]c2ccccc12)C(=O)N[C@H](CC(N)=O)C(=O)N[C@@H](CC(=O)O)C(=O)N[C@@H]1C(=O)NCC(=O)N[C@@H](CCCN)C(=O)N[C@@H](CC(=O)O)C(=O)N[C@H](C)C(=O)N[C@@H](CC(=O)O)C(=O)NCC(=O)N[C@H](CO)C(=O)N[C@@H]([C@H](C)CC(=O)O)C(=O)N[C@@H](CC(=O)c2ccccc2N)C(=O)O[C@@H]1C [Daptomycin]
[2]; presence of surfactant at 0·8 mg/ml
  elevation of MICs: at least 32 fold

## C[C@H]1COc2c(N3CCN(C)CC3)c(F)cc3c(=O)c(C(=O)O)cn1c23 [Levofloxacin]
[3]
  interaction with AFN-1252: did not detect any synergy or antagonism

## CN[C@H](CC(C)C)C(=O)N[C@H]1C(=O)N[C@@H](CC(N)=O)C(=O)N[C@H]2C(=O)N[C@H]3C(=O)N[C@H](C(=O)N[C@H](C(=O)O)c4cc(O)cc(O)c4-c4cc3ccc4O)[C@H](O)c3ccc(c(Cl)c3)Oc3cc2cc(c3O[C@@H]2O[C@H](CO)[C@@H](O)[C@H](O)[C@H]2O[C@H]2C[C@](C)(N)[C@H](O)[C@H](C)O2)Oc2ccc(cc2Cl)[C@H]1O [Vancomycin]
[2]
  effect of pulmonary surfactant on MICs: generally unaffected

## CC[C@H]1OC(=O)[C@H](C)[C@@H](O[C@H]2C[C@@](C)(OC)[C@@H](O)[C@H](C)O2)[C@H](C)[C@@H](O[C@@H]2O[C@H](C)C[C@H](N(C)C)[C@H]2O)[C@](C)(O)C[C@@H](C)CN(C)[C@H](C)[C@@H](O)[C@]1(C)O [azithromycin]
[3]
  interaction with AFN-1252: did not detect any synergy or antagonism

## CO/N=C(\C(=O)N[C@@H]1C(=O)N2C(C(=O)O)=C(CSc3nc(=O)c(=O)[nH]n3C)CS[C@H]12)c1csc(N)n1 [ceftriaxone]
[3]
  interaction with AFN-1252: did not detect any synergy or antagonism

## COc1c(N2CCNC(C)C2)c(F)cc2c(=O)c(C(=O)O)cn(C3CC3)c12 (stereo not shown) [gatifloxacin]
[3]
  interaction with AFN-1252: did not detect any synergy or antagonism

## C[C@@H](O)[C@H]1C(=O)N2C(C(=O)O)=C(S[C@@H]3CN[C@H](C(=O)N(C)C)C3)[C@H](C)[C@H]12 [meropenem]
[3]
  interaction with AFN-1252: did not detect any synergy or antagonism

## penicillin
[3]
  interaction with AFN-1252: did not detect any synergy or antagonism
